Measurements published in patent EP4516309A1, “CRHR1 AGONISTS FOR USE IN THE TREATMENT OF SOCIAL ANXIETY DISORDERS” (Consejo Superior de Investigaciones Cientificas, priority 2023, dated 2025).

Target: T1, inhibitory DREADD (Homo sapiens, UniProt P08173, A203G/Y113C)
T1 construct: host or cells: ILA CRH+ neurons of CRH-Cre mice, Cre-dependent AAV2/8 transduction in vivo
T1 sequence (P08173 1-479 Y113C/A203G): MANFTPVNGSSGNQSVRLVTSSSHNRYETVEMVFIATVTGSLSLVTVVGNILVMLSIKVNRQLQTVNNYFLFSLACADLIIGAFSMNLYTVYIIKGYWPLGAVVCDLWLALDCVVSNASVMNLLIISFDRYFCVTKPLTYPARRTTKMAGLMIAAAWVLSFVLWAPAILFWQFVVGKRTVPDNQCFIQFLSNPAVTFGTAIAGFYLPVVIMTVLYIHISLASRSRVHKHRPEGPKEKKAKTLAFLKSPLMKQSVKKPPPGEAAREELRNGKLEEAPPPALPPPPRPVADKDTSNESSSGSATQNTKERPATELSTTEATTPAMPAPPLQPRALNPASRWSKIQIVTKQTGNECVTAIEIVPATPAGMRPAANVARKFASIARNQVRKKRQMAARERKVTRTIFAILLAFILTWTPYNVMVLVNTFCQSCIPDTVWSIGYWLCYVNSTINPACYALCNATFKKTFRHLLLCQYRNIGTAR
Test: Repetitive social presentation test with chemogenetic silencing of ILA CRH cells
Format: in vivo, CRH-Cre mice
Conditions: CNO; iDREADD in ILA CRH cells
Description: Injection coordinates were the following (in mm from Bregma): AP: 1.65, ML: ±0.1, DV: -2.6. Injections were done bilaterally with 100 nl injected per site. AAV2/DJ hSyn.FLEX.mGFP.2A.Synatophysin-mRuby (Addgene #71760 prepared by the Stanford University vector core #1930), AAV2/8 hSyn.DIO.hM4D(Gi)-mCherry (Addgene #44362-AAV8), AAV2/8 hSyn.DIO.mCherry (Addgene #50459-AAV8), AAV2/5-hSyn-DIO-hM3D(Gq)-mCherry (Addgene, #44361-AAV5), AAV2/5 hsyn.DIO.mCherry (Addgene #50459-AAV5), AAV2/1 syn.FLEX.GCaMP6f.WPRE.SV40 (Addgene #100833-AAV1), AAV2/9 CMV-DIO-(mCherry-U6)-shRNA(anti-Crh) (VTA brain), AAV2/9 CMV-DIO-(mCherry-U6)-shRNA(scrambled) (VTA brain), AAV2/9 hSyn.FLEX.dsRed-shRNA(Vgat) (Addgene #67845), AAV 2/9 hSyn-flex-dsRed-shRNA(scrambled) (Addgene #71383), AAV2/2 CAG.FLEX.ArchT-tdTomato (Addgene #28305 prepared by the University of North Carolina vector core) and AAV2/2 CAG.FLEX.tdTomato (Addgene #28306 prepared by the University of North Carolina vector core) were injected into the ILA of CRH-Cre mice. Viruses expressed for a minimum of 2 weeks.
Repetitive social presentation test. […] Films were scored offline for social interaction by a trained observer blind to the experimental condition. Sniffing of any part of the body, allo-grooming and close following counted as social interaction. […]

C[N+]1([O-])CCN(C2=Nc3cc(Cl)ccc3Nc3ccccc32)CC1 [CNO, clozapine N-oxide]
interaction time during the repeated presentations: showed no decrease in interaction time
